Measured values as given in patent publication US20140107109A1, “AMINO-DIHYDROTHIAZINE AND AMINO-DIOXIDO DIHYDROTHIAZINE COMPOUNDS AS BETA-SECRETASE ANTAGONISTS AND METHODS OF USE” (Amgen Inc., priority 2012, published 2014).
pIC50: −log10 of the molar value.

Tests used:
[1] = system: Aβ40 in conditioned medium of cells stably expressing Amyloid Precursor Protein (APP); assay: In vitro BACE cell-based assay (HEK cell assay), Aβ40 sandwich ELISA; conditions: Homo sapiens, HEK293; average IC50, cell assay
In short: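 Aβ40 in conditioned medium was quantified by time-resolved fluorescence sandwich ELISA (pAb40 capture 3 h at 4 °C, biotin-6E10 detection 2 h at 4 °C) after 24 h compound exposure of APP-expressing cells. Doses spanned 10 points from 100 μM or 10 μM top, 0.1% DMSO; IC50 was derived from percent of control.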

Cathepsin D (Cat D) = biological target: T1, Cathepsin D (Cat D) (Homo sapiens, UniProt P07339); assay: In vitro enzymatic Cathepsin D (Cat D) FRET assay; assay type: biochemical; conditions: read-out: CatD IC50
T1 construct: Recombinant Cat D was expressed in CHO cells; made in house; host or cells: CHO cells
T1 sequence (P07339 65-412, species assumed): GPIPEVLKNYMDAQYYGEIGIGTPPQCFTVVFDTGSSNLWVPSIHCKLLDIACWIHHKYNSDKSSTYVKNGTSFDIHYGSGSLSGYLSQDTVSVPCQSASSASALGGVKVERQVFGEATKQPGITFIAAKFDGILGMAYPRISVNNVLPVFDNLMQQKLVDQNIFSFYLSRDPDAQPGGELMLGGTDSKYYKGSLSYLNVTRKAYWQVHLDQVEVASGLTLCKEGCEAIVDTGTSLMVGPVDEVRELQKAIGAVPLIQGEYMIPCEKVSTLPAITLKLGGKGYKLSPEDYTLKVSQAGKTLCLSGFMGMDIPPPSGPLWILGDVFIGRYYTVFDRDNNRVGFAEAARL
In short: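 FRET read-out: a fluorophore/quencher-labelled peptide substrate is cleaved by 9 nM Cat D (recombinant, CHO-expressed) following a one-hour preincubation with inhibitor dilutions in DMSO. Tris buffer added to neutralize pH ends the reaction before fluorescence measurement.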

[2] = biological target: Beta Secretase enzyme (BACE1) (Homo sapiens, UniProt P56817); assay: In vitro enzymatic BACE FRET assay; assay type: biochemical; conditions: average IC50, enzyme assay; read-out: BACE1 FRET assay IC50
Beta Secretase enzyme (BACE1), sequence (P56817 46-501): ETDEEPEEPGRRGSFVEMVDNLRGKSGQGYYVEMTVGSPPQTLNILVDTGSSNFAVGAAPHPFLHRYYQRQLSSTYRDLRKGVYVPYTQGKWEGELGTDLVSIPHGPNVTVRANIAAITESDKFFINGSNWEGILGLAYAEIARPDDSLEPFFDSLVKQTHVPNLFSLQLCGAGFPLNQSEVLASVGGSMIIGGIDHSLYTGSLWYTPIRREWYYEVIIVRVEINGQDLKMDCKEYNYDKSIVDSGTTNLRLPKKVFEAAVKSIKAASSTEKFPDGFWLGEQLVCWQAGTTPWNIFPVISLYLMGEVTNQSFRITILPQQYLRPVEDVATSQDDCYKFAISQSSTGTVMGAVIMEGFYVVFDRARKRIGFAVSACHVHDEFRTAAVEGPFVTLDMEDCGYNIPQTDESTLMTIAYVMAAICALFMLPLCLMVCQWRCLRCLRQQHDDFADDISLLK
In short: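 Readout: dequenched fluorescence (ex 488 nm/[…]) after neutralizing with Tris buffer. Reactions, begun by adding 50 nM quenched peptide substrate spanning the BACE cleavage site, were incubated one hour at pH 4.2 in 0.05 M acetate with 100 uM genapol and 10% final DMSO.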

SMILES | pIC50 [1] | pIC50 (Cathepsin D (Cat D)) | pIC50 [2]
CC1(C)C(N)=N[C@](C)(c2cc(Nc3ncc(F)c4cc(C#N)cnc34)cnc2F)CS1(=O)=O [Example 221, 8-((5-((3R)-5-amino-3,6,6-trimethyl-1,1-dioxido-3,6-dihydro-2H-1,4-thiazin-3-yl)-6-fluoro-3-pyridinyl)amino)-5-fluoro-1,7-naphthyridine-3-carbonitrile] | 8.24 | 4.37 | 8.71
COc1cnc2c(Nc3cnc(F)c([C@]4(C)CS(=O)(=O)C(C)(C)C(N)=N4)c3)nccc2n1 [Example 222, N-(5-((3R)-5-amino-3,6,6-trimethyl-1,1-dioxido-3,6-dihydro-2H-1,4-thiazin-3-yl)-6-fluoro-3-pyridinyl)-2-methoxypyrido[3,4-b]pyrazin-5-amine] | 8.44 | 3.55 | 8.59
CC1(C)C(N)=N[C@](C)(c2cc(Nc3nccc4cc(Cl)cnc34)cnc2F)CS1(=O)=O [Example 223, N-(5-((3R)-5-amino-3,6,6-trimethyl-1,1-dioxido-3,6-dihydro-2H-1,4-thiazin-3-yl)-6-fluoro-3-pyridinyl)-3-chloro-1,7-naphthyridin-8-amine] | 8.27 | 4.62 | 9.09
CC1(C)C(N)=N[C@](C)(c2cc(Nc3ncnc4cc(Cl)cnc34)cnc2F)CS1(=O)=O [Example 225, N-(5-((3R)-5-amino-3,6,6-trimethyl-1,1-dioxido-3,6-dihydro-2H-1,4-thiazin-3-yl)-6-fluoro-3-pyridinyl)-7-chloropyrido[3,2-d]pyrimidin-4-amine] | 7.91 | 4.48 | 8.48
CC#CCOc1cnc2c(Nc3ccc(F)c([C@]4(C)CS(=O)(=O)[C@@](C)(F)C(N)=N4)c3)nccc2c1 [Example 226, N-(3-((3R,6R)-5-amino-6-fluoro-3,6-dimethyl-1,1-dioxido-3,6-dihydro-2H-1,4-thiazin-3-yl)-4-fluorophenyl)-3-(2-butyn-1-yloxy)-1,7-naphthyridin-8-amine] | 8.24 | < 3.40 | 9.13
C[C@@]1(c2cc(Nc3nccc4cc(Cl)cnc34)cnc2F)CS(=O)(=O)C2(CCC2)C(N)=N1 [Example 230, N-(5-((7R)-9-amino-7-methyl-5,5-dioxido-5-thia-8-azaspiro[3.5]non-8-en-7-yl)-6-fluoro-3-pyridinyl)-3-chloro-1,7-naphthyridin-8-amine] | 7.73 | 4.63 | 8.42
COc1cnc2c(Nc3cnc(F)c([C@]4(C)CS(=O)(=O)C5(CCC5)C(N)=N4)c3)nccc2n1 [Example 231, N-(5-((7R)-9-amino-7-methyl-5,5-dioxido-5-thia-8-azaspiro[3.5]non-8-en-7-yl)-6-fluoro-3-pyridinyl)-2-methoxypyrido[3,4-b]pyrazin-5-amine] | 7.74 | 3.79 | 8.19
COc1cnc2c(Nc3ccc(F)c([C@@]4(C)N=C(N)C5(CCC5)S(=O)(=O)C4F)c3)nccc2n1 (stereo partly drawn) [Example 232, N-(3-((7R)-9-amino-6-fluoro-7-methyl-5,5-dioxido-5-thia-8-azaspiro[3.5]non-8-en-7-yl)-4-fluorophenyl)-2-methoxypyrido[3,4-b]pyrazin-5-amine] | 7.11 | 3.52 | 7.88
N#Cc1cnc2c(Nc3ccc(F)c([C@]4(CF)CS(=O)(=O)C5(CCC5)C(N)=N4)c3)ncc(F)c2c1 [Example 241, 8-((3-((7S)-9-amino-7-(fluoromethyl)-5,5-dioxido-5-thia-8-azaspiro[3.5]non-8-en-7-yl)-4-fluorophenyl)amino)-5-fluoro-1,7-naphthyridine-3-carbonitrile] | 7.32 | < 5.31 | 9.05

More lines, now with the values ahead:

pIC50 [1] | pIC50 (Cathepsin D (Cat D)) | pIC50 [2] | SMILES
7.40 | 3.34 | 7.80 | CC1(C)C(N)=N[C@](C)(c2cc(Nc3nccc4nc(C(F)(F)F)cnc34)cnc2F)CS1(=O)=O [Example 224, N-(5-((3R)-5-amino-3,6,6-trimethyl-1,1-dioxido-3,6-dihydro-2H-1,4-thiazin-3-yl)-6-fluoro-3-pyridinyl)-2-(trifluoromethyl)pyrido[3,4-b]pyrazin-5-amine]
7.07 | 3.84 | 9.51 | CC1(C)C(N)=N[C@](CF)(c2cc(Nc3ncc(F)c4cc(Cl)cnc34)ccc2F)CS1(=O)=O [Example 233, N-(3-((3S)-5-amino-3-(fluoromethyl)-6,6-dimethyl-1,1-dioxido-3,6-dihydro-2H-1,4-thiazin-3-yl)-4-fluorophenyl)-3-chloro-5-fluoro-1,7-naphthyridin-8-amine]
6.98 | < 4.83 | 8.69 | CC1(C)C(N)=N[C@](CF)(c2cc(Nc3nccc4nc(C(F)(F)F)cnc34)ccc2F)CS1(=O)=O [Example 234, N-(3-((3S)-5-amino-3-(fluoromethyl)-6,6-dimethyl-1,1-dioxido-3,6-dihydro-2H-1,4-thiazin-3-yl)-4-fluorophenyl)-2-(trifluoromethyl)pyrido[3,4-b]pyrazin-5-amine]
7.51 | 4.17 | 8.49 | CC1(C)C(N)=N[C@](CF)(c2cc(Nc3ncnc4cc(Cl)cnc34)ccc2F)CS1(=O)=O [Example 235, N-(3-((3S)-5-amino-3-(fluoromethyl)-6,6-dimethyl-1,1-dioxido-3,6-dihydro-2H-1,4-thiazin-3-yl)-4-fluorophenyl)-7-chloropyrido[3,2-d]pyrimidin-4-amine]
7.39 | 4.25 | 9.14 | CC1(C)C(N)=N[C@](CF)(c2cc(Nc3ncnc4cc(C#N)cnc34)ccc2F)CS1(=O)=O [Example 236, 4-((3-((3S)-5-amino-3-(fluoromethyl)-6,6-dimethyl-1,1-dioxido-3,6-dihydro-2H-1,4-thiazin-3-yl)-4-fluorophenyl)amino)pyrido[3,2-d]pyrimidine-7-carbonitrile]
7.39 | 3.18 | 8.55 | CCOc1cnc2c(Nc3ccc(F)c([C@]4(CF)CS(=O)(=O)C(C)(C)C(N)=N4)c3)nccc2n1 [Example 237, N-(3-((3S)-5-amino-3-(fluoromethyl)-6,6-dimethyl-1,1-dioxido-3,6-dihydro-2H-1,4-thiazin-3-yl)-4-fluorophenyl)-2-ethoxypyrido[3,4-b]pyrazin-5-amine]
6.93 | < 3.40 | 8.40 | CCOc1cnc2c(Nc3ccc(F)c([C@]4(CF)CS(=O)(=O)C5(CCC5)C(N)=N4)c3)nccc2n1 [Example 238, N-(3-((7S)-9-amino-7-(fluoromethyl)-5,5-dioxido-5-thia-8-azaspiro[3.5]non-8-en-7-yl)-4-fluorophenyl)-2-ethoxypyrido[3,4-b]pyrazin-5-amine]
7.63 | 3.41 | 8.38 | COc1cnc2c(Nc3ccc(F)c([C@]4(CF)CS(=O)(=O)C5(CCC5)C(N)=N4)c3)nccc2c1 [Example 239, N-(3-((7S)-9-amino-7-(fluoromethyl)-5,5-dioxido-5-thia-8-azaspiro[3.5]non-8-en-7-yl)-4-fluorophenyl)-3-methoxy-1,7-naphthyridin-8-amine]
7.57 | 4.24 | 8.77 | NC1=N[C@](CF)(c2cc(Nc3ncnc4cc(Cl)cnc34)ccc2F)CS(=O)(=O)C12CCC2 [Example 240, N-(3-((7S)-9-amino-7-(fluoromethyl)-5,5-dioxido-5-thia-8-azaspiro[3.5]non-8-en-7-yl)-4-fluorophenyl)-7-chloropyrido[3,2-d]pyrimidin-4-amine]
7.85 | 3.92 | 8.83 | COc1cnc2c(Nc3ccc(F)c([C@]4(CF)CS(=O)(=O)C5(CCC5)C(N)=N4)c3)ncnc2c1 [Example 242, N-(3-((7S)-9-amino-7-(fluoromethyl)-5,5-dioxido-5-thia-8-azaspiro[3.5]non-8-en-7-yl)-4-fluorophenyl)-7-methoxypyrido[3,2-d]pyrimidin-4-amine]
7.33 | 3.54 | 9.25 | NC1=N[C@](CF)(c2cc(Nc3nccc4cc(Cl)cnc34)ccc2F)CS(=O)(=O)C12CCC2 [Example 245, N-(3-((7S)-9-amino-7-(fluoromethyl)-5,5-dioxido-5-thia-8-azaspiro[3.5]non-8-en-7-yl)-4-fluorophenyl)-3-chloro-1,7-naphthyridin-8-amine]
7.67 | 3.09 | 8.84 | COc1cnc2c(Nc3ccc(F)c([C@]4(CF)CS(=O)(=O)C5(CCC5)C(N)=N4)c3)nccc2n1 [Example 246, N-(3-((7S)-9-amino-7-(fluoromethyl)-5,5-dioxido-5-thia-8-azaspiro[3.5]non-8-en-7-yl)-4-fluorophenyl)-2-methoxypyrido[3,4-b]pyrazin-5-amine]
5.55 | 3.32 | 6.15 | COc1cnc2c(Nc3ccc(F)c([C@@]45COC[C@@H]4S(=O)(=O)C(C)(C)C(N)=N5)c3)nccc2n1 [Example 247, N-(3-((4aR,7aR)-3-amino-2,2-dimethyl-1,1-dioxido-7,7a-dihydro-2H-furo[3,4-b][1,4]thiazin-4a(5H)-yl)-4-fluorophenyl)-2-methoxypyrido[3,4-b]pyrazin-5-amine]
